Data from patent US8809298B2, “Methods, compositions, unit dosage forms, and kits testing for pharmacologic stress testing with reduced side effects” (Adenobio N.V., priority 2006, dated 2014).
Values joined by “and” are separate entries in the source; they are usually repeats but may differ in a detail not shown here. Equal values may be shown once. Each block holds one compound with its values, some of them ahead of it.

Experiments:
[1] = tested on: patients suffering from ischemic heart disease; assay: Transthoracic doppler echocardiography (TTDE): blood flow velocity in the left anterior descending coronary artery (LAD); assay type: in vivo, human; details: for MV-DIP Min / PV-DIP Min: at rest, dipyridamole alone arm; for Mean velocity ADE Max / Peak velocity ADE Max: adenosine alone 140 μg/kg/min IV, under stress conditions; for Mean velocity ADE Min / Peak velocity ADE Min: at rest (basal conditions) before adenosine 140 μg/kg/min
Method: In the combined administration, each of the two agents was administered at a dosage lower than its clinically preferred dosage when used as a single agent for myocardial perfusion imaging. Effects were measured using noninvasive transthoracic doppler echocardiography (TTDE).
The protocol was designed as follows.
Forty (40) consecutive patients suffering from ischemic heart disease were enrolled. Each patient served as their own control.
[…] These total doses are between about 4-6% of the lowest single-agent total dose of dipyridamole (i.e., 0.56 mg/kg, infused over a total of 4 minutes).
This dose is half the standard single-agent dosage rate of 140 μg/kg/min.

[2] = tested on: patients suffering from ischemic heart disease; details: human, in vivo, iv
Description: (§1) Primary efficacy end-points were peak and mean diastolic flow velocities (measured as reflecting coronary blood flow values). The secondary end-point was patient tolerance to the procedure.
(§2) VAS scores provide a measure of patient self-assessment of pain intensity/discomfort.

[3] = cited from earlier work
[4] = tested on: coronary patients; assay: Phase II SPECT imaging study: stress scores, 17-segment model; assay type: in vivo, human; design: key: sum of abnormal segment scores, each 0 = normal to 4 = no uptake; details: adenosine alone 140 μg/kg/min; Series I, individual patients 1-10; listed as Adenoscan
Method: The study, which is ongoing, is a mono-center, single-blind, 2-arm, cross-over trial.
Only those patients in whom an ischemic zone was detected were declared eligible for the second test, and were enrolled in the study if other inclusion criteria were satisfied.
SPECT images were acquired as per the standard approach performed the preceding week.
Randomization of SPECT images, and their analysis by two blinded readers, took place every 10 patients. Anonymous and randomized images were assessed using the standard 17-segment model and the semi-quantitative visual score method on a 5-point scale (from 0 to 4).
The “stress score” is the image of ischemia in one or more of the 17 cardiac segments, as scored from 0 to 4 by the blinded reader using the following scale: normal perfusion=0, mild reduction in counts=1, moderate reduction in counts=2, severe reduction=3, absence of uptake=4). Normally, a zone of ischemia is certain when a score ≧4 is noted. A stress score sums the scores of all abnormal segments.
“Stress score A” is the image score difference between stress conditions between adenosine alone and rest conditions. […] “Delta score” is the difference between “Stress score A” and “Stress score B.” It must not be >2 […]

[5] = tested on: coronary patients; assay: Safety of the procedure in the Phase II SPECT study: adverse events, visual scale, ST changes on EKG; assay type: in vivo, human
Method: Given the similar adverse effect profile, the 40 μg/kg dipyridamole dose is currently preferred, since it tends to show greater efficacy.
Table 13 gives adverse event severity cumulated scores, evaluated on a visual scale (going from 0 to 10), for the first 27 patients.
At this point in time, no difference in the occurrence of A2 receptor-related side effects, or severity of symptoms, has become clearly apparent as between the combination stressor and Adenoscan. In contrast, the reduction in the occurrence (−43%) and severity (−69%) of chest pain (an A1 receptor-related adverse effect) has already become manifest in the first 27 patients. […] The difference in ST-variation for each patient alone is not significant, but the total difference has achieved significance, with a clear trend in favor of the combination. In the table below (Table 14) ST-changes/baseline are expressed in millimeters.

[6] = tested on: patients suffering from ischemic heart disease; assay: Patient tolerance in Example 1: adverse events, VAS severity, EKG, vital signs; details: for Mean global visual analogue scale (VAS) score for the three main adverse events: total score of 30, ADE 140 μg/kg/min, SC adenosine 70 μg/kg/min
Description: as §1, §2

[7] = dipyridamole alone, bolus 28 μg/kg, individual patient
[8] = dipyridamole alone, bolus 35 μg/kg, individual patients
[9] = dipyridamole alone, bolus 40 μg/kg, individual patients
[10] = mean of 5 patients (DIP4 group)
[11] = mean of 5 patients (DIP6 group)
[12] = mean of 30 patients (DIP5 group)
[13] = at rest before adenosine infusion, individual patients (second control experiment)
[14] = at rest before first adenosine infusion, individual patients, listed as ADE1
[15] = at rest before first adenosine infusion, mean of 5 patients
[16] = at rest before second adenosine infusion, individual patients, listed as ADE2
[17] = at rest before second adenosine infusion, mean of 5 patients
[18] = first adenosine infusion 140 μg/kg/min, stress, mean of 5 patients
[19] = first vs second adenosine infusion 140 μg/kg/min, 5 patients
[20] = second adenosine infusion 140 μg/kg/min after 5 minute stabilization, stress, individual patients, listed as ADE2
[21] = second adenosine infusion 140 μg/kg/min, stress, mean of 5 patients
[22] = three minute adenosine infusion 140 μg/kg/min, stress, individual patients (second control experiment)
[23] = Adenoscan alone 140 μg/kg/min, n=27
[24] = visual scale 0 to 10, cumulated over first 27 patients
[25] = adenosine alone 140 μg/kg/min, 40 patients

Symptoms during a follow-up of 10 minutes [2]: No symptoms
SMILES: OCCN(CCO)c1nc(N2CCCCC2)c2nc(N(CCO)CCO)nc(N3CCCCC3)c2n1 [DIP, dipyridamole]
MV-DIP Min ([1]; 28 μg/kg, individual patient): 19 cm/s | PV-DIP Min ([1]; 28 μg/kg, individual patient): 23 cm/sec | MV-DIP Min ([1]; 35 μg/kg, individual patients): 18 cm/s and 22 cm/s | PV-DIP Min ([1]; 35 μg/kg, individual patients): 21 cm/sec and 30 cm/sec | MV-DIP Min ([1]; 40 μg/kg, individual patients): 23 cm/s and 24 cm/s | PV-DIP Min ([1]; 40 μg/kg, individual patients): 33 cm/sec and 34 cm/sec | Effect on peak and mean diastolic velocities ([1]; dipyridamole alone, IV bolus 28 to 40 μg/kg, 5 patients): did not modify | MV-DIP Max [1, 7]: 21 cm/s | PV-DIP Max [1, 7]: 26 cm/sec | MV-DIP Max [1, 8]: 20 cm/s and 28 cm/s | PV-DIP Max [1, 8]: 23 cm/sec and 40 cm/sec | MV-DIP Max [1, 9]: 25 cm/s and 29 cm/s | PV-DIP Max [1, 9]: 35 cm/sec and 40 cm/sec | Stability in solvents ([3]; pH>4, long term): unstable in the long term | Solubility in saline ([3]; saline): poorly soluble

SMILES: Nc1ncnc2c1ncn2[C@@H]1O[C@H](CO)[C@@H](O)[C@H]1O [ADE, adenosine]
Differences in velocity measurements between first and second adenosine infusions ([1]; 140 μg/kg/min twice, 5 patients, P>0.05): No statistically significant differences | Mean velocity ADE Max ([1]; (DIP5 group)): 61.4 cm/s | Mean velocity ADE Max ([1]; cumulated, all 40 patients): 63.6 cm/s | Peak velocity ADE Max ([1]; cumulated, all 40 patients): 85.3 cm/sec | Mean velocity ADE Max [1, 10]: 60.4 cm/s | Peak velocity ADE Max [1, 10]: 80 cm/sec | Mean velocity ADE Max [1, 11]: 80.2 cm/s | Peak velocity ADE Max [1, 11]: 107 cm/sec | Peak velocity ADE Max [1, 12]: 82.6 cm/sec | Mean velocity ADE Min ([1]; cumulated, all 40 patients): 23.7 cm/s | Peak velocity ADE Min ([1]; cumulated, all 40 patients): 31.2 cm/sec | Mean velocity ADE Min [1, 10]: 22.2 cm/s | Peak velocity ADE Min [1, 10]: 28 cm/sec | Mean velocity ADE Min [1, 11]: 28.2 cm/s | Peak velocity ADE Min [1, 11]: 37.6 cm/sec | Mean velocity ADE Min [1, 12]: 23.1 cm/s | Peak velocity ADE Min [1, 12]: 30.6 cm/sec | MV-ADE Min [1, 13]: 21 cm/sec and 23 cm/sec (2×) and 25 cm/sec and 20 cm/sec | PV-ADE Min [1, 13]: 25 cm/sec and 33 cm/sec (2×) and 27 cm/sec and 32 cm/sec | MV-ADE1 Min [1, 14]: 25 cm/s and 17 cm/s and 22 cm/s and 23 cm/s and 20 cm/s | PV-ADE1 Min [1, 14]: 34 cm/sec and 23 cm/sec and 30 cm/sec (2×) and 28 cm/sec | MV-ADE1 Min, Mean [1, 15]: 21.4 cm/s | PV-ADE1 Min, Mean [1, 15]: 29 cm/sec | MV-ADE2 Min [1, 16]: 23 cm/s and 16 cm/s and 22 cm/s and 21 cm/s and 20 cm/s | PV-ADE2 Min [1, 16]: 31 cm/sec and 22 cm/sec and 29 cm/sec and 26 cm/sec and 25 cm/sec | MV-ADE2 Min, Mean [1, 17]: 20.4 cm/s | PV-ADE2 Min, Mean [1, 17]: 26.6 cm/sec | PV-ADE1 Max ([1]; first adenosine infusion 140 μg/kg/min, stress, individual patients (first control experiment), listed as ADE1): 68 cm/sec and 65 cm/sec and 102 cm/sec and 73 cm/sec and 70 cm/sec | MV-ADE1 Max ([1]; first adenosine infusion 140 μg/kg/min, stress, individual patients, listed as ADE1): 49 cm/s and 48 cm/s and 75 cm/s and 53 cm/s and 50 cm/s | MV-ADE1 Max, Mean [1, 18]: 55 cm/s | PV-ADE1 Max, Mean [1, 18]: 75.6 cm/sec | Max velocity differential MV (ADE1 − ADE2) [1, 19]: (ADE2) = 2.4 cm/sec | Max velocity differential PV (ADE1 − ADE2) [1, 19]: (ADE2) = 4.8 cm/sec | MV-ADE2 Max [1, 20]: 45 cm/sec and 48 cm/sec (2×) and 75 cm/sec and 47 cm/sec | PV-ADE2 Max [1, 20]: 60 cm/sec and 66 cm/sec and 103 cm/sec and 63 cm/sec and 62 cm/sec | MV-ADE2 Max, Mean [1, 21]: 52.6 cm/s | PV-ADE2 Max, Mean [1, 21]: 70.8 cm/sec | MV-ADE Max [1, 22]: 71 cm/s and 67 cm/s and 86 cm/s and 64 cm/s and 61 cm/s | PV-ADE Max [1, 22]: 88 cm/sec and 92 cm/sec and 112 cm/sec and 84 cm/sec (2×) | Stress score A (Adenoscan) [4]: 5 (5×) and 4 (2×) and 14 and 13 and 7 | Chest pain: # patients reporting event, ADE [5, 23]: 14 | Dyspnea: # patients reporting event, ADE [5, 23]: 11 | Flushing: # patients reporting event, ADE [5, 23]: 14 | ST-changes/baseline, Adenosine 140 μg/kg/mn ([5]; EKG, individual patients with ST variations (6 of 27)): 0.5 millimeters and 1 millimeters (3×) and 0.8 millimeters and 1.2 millimeters | ST-changes/baseline, Adenosine 140 μg/kg/mn, Total ([5]; EKG, total of 6 patients): 5.5 millimeters | Chest pain: adverse event severity cumulated score [5, 24]: 60 | Dyspnea: adverse event severity cumulated score [5, 24]: 40 | Flushing: adverse event severity cumulated score [5, 24]: 43.5 | Mean global visual analogue scale (VAS) score for the three main adverse events ([6]; Group DIP4 (dipyridamole 35 μg/kg in SC), n=5): 5.4 | Mean global visual analogue scale (VAS) score for the three main adverse events ([6]; Group DIP5 (dipyridamole 28 μg/kg in SC), n=30): 5.95 | Mean global visual analogue scale (VAS) score for the three main adverse events ([6]; Group DIP6 (dipyridamole 23 μg/kg in SC), n=5): 8.2 | Symptoms under ADE ([6]; adenosine 140 μg/kg/min, individual patients (second control experiment)): None (2×) and Dyspnea and Flushing (2×) | Symptoms under ADE: score ([6]; adenosine 140 μg/kg/min, score out of 10, individual patients): 5/10 and 8/10 and 6/10 | Chest pain: # patients reporting events, ADE [6, 25]: 9 | Chest pain: frequency, ADE [6, 25]: 22.5% | Dyspnea: # patients reporting events, ADE [6, 25]: 20 | Dyspnea: frequency, ADE [6, 25]: 50% | Flushing: # patients reporting events, ADE [6, 25]: 21 | Flushing: frequency, ADE [6, 25]: 52.5%
